In PubChem BioAssay (NCI):
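These data come from cells grown in 96-well plates and exposed to compound for 48 hours at five concentrations. The concentration for full growth arrest is given as TGI.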

Key:
Assay in all cases: growth of human tumour cells (NCI), 48 h
COLO 205 colon = test system: COLO 205 colon
EKVX NSCLC = test system: EKVX NSCLC
HCC-2998 colon = test system: HCC-2998 colon
HCT-15 colon = test system: HCT-15 colon
MCF7 breast = test system: MCF7 breast
NCI-H23 lung = test system: NCI-H23 lung
RXF 393 renal = test system: RXF 393 renal
SF-295 CNS = test system: SF-295 CNS
SNB-75 CNS = test system: SNB-75 CNS
U251 CNS = test system: U251 CNS

Row | SMILES | TGI (COLO 205 colon) [µM] | TGI (EKVX NSCLC) [µM] | TGI (HCC-2998 colon) [µM] | TGI (HCT-15 colon) [µM] | TGI (MCF7 breast) [µM] | TGI (NCI-H23 lung) [µM] | TGI (RXF 393 renal) [µM] | TGI (SF-295 CNS) [µM] | TGI (SNB-75 CNS) [µM] | TGI (U251 CNS) [µM]
1 | CC(=O)c1ccc(Oc2c3ccccc3nc3ccccc23)cc1 | 7.55 | 35.1 | 24 | 17.5 | 12.1 | 56.6 | 21.3 | 28.2 | 29.7 | 25.9
2 | CN(C)c1ccc(/C=C(\NC(=O)c2ccccc2)C(=O)NC(CC(=O)O)C(=O)O)cc1 (stereo not given) | > 100 | > 100 | > 100 | > 100 | > 100 | > 100 | > 100 | > 100 | 94.5 | > 100
3 | CCOC(=O)CSc1nc(N)c2c(-c3ccccc3)c3c(nc2n1)CCCC3 | > 100 | > 100 | > 100 | > 100 | > 100 | > 100 | > 100 | > 100 | > 100 | > 100
4 | S=C(Cc1ccc2c(c1)Sc1ccccc1O2)N1CCOCC1 | > 100 | > 100 | > 100 | > 100 | > 100 | > 100 | > 100 | > 100 | 60.6 | > 100
5 | CC1=CC2C3(C)C(C)(C(C)=CP3(=O)c3c(C(C)C)cc(C(C)C)cc3C(C)C)C1P2(=O)c1c(C(C)C)cc(C(C)C)cc1C(C)C (stereo not given) | 3.3 | 9.83 | 3.47 | 5.87 | 6.38 | 4.09 | 15.8 | 6.72 | 12.1 | 6.59
6 | CN(C)C(=O)C(F)(F)C(c1ccc(F)cc1)C1C(=O)N(C)C(=O)N(C)C1=O (stereo not given) | > 100 | > 100 | > 100 | > 100 | > 100 | > 100 | > 100 | > 100 | > 100 | > 100
7 | O=c1oc2ccc3ccccc3c2cc1-c1cn2ccsc2n1 | 33.3 | 54.5 | 67.9 | 35.9 | 19 | 92 | 37.4 | > 100 | > 100 | > 100
8 | CCc1c(O)cc(=O)oc1-c1ccc(OC)c(OC)c1 | > 100 | > 100 | > 100 | > 100 | > 100 | > 100 | > 100 | > 100 | > 100 | > 100
9 | O=C(CCc1cc(O)cc(O)c1)NCCc1cc(OCc2ccccc2)cc(OCc2ccccc2)c1 | 44.3 | 22.6 | 35 | 29.8 | 23.6 | 24.6 | 27.4 | 25.8 | 24.5 | > 100
10 | O=c1ccc2ccc(S)cc2o1 | > 100 | > 100 | > 100 | > 100 | > 100 | > 100 | > 100 | > 100 | > 100 | > 100
11 | CC(C)NC(=O)OCc1c(COC(=O)NC(C)C)n(C)c2c1ccc1sccc12 | 37.9 | 34.1 | 30.3 | > 52.3 | > 55.5 | 29.3 | 39.9 | > 87.7 | 32.4 | > 60.8
12 | COc1cccc(C2c3cc4c(cc3OC(O)C2C)OCO4)c1OC (stereo not given) | 19.7 | 78.7 | 46 | > 100 | > 100 | 64 | 23.5 | 17.3 | 32.4 | 40.2
13 | COC(=O)[C@]1(C)CCC[C@@]2(C)C1CC[C@]13C=C(C(C)C)[C@H](CC21)CC3(Cl)C#N (stereo not given in full) | > 100 | 77.3 | > 100 | > 100 | > 100 | > 100 | 97.5 | > 100 | > 100 | 49.4
14 | Cc1c(C)n(-c2ccccc2)c2nc(S(C)=O)nc(S(C)=O)c12 (stereo not given) | 3.41 | 22.8 | 30.3 | 17.8 | 7.1 | 29.5 | 14.4 | 32.2 | 23.3 | 21.1
15 | CC(C)Oc1cccc(N2C(n3ccnc3)=Nc3ccncc3S2(=O)=O)c1 | 24.7 | 30.4 | 31 | 32.7 | 24.1 | 24.9 | 28.9 | > 100 | 33.3 | 28.8
16 | O=C(NCc1ccccc1)c1cc2ccccc2oc1=Nc1cccc(C(F)(F)F)c1 | 90.2 | > 100 | 61.1 | > 100 | > 100 | > 100 | > 100 | > 100 | > 100 | > 100
17 | O=C(/C=C/c1ccc(O)c(O)c1)OCCc1ccc2ccccc2c1 | 16.4 | 28.7 | 30.9 | 10.2 | 8.91 | 14.7 | 21.6 | 23.7 | 8.22 | 23.8
